The results in this text go back to patent US8883782B2, “Spiro-tetracyclic ring compounds as beta-secretase modulators and methods of use” (Amgen Inc., priority 2010, dated 2014).

Assay [1] has as its target Beta Secretase enzyme (BACE) (Homo sapiens, UniProt P56817). The assay is described as follows: In vitro enzymatic BACE FRET (fluorescence resonance energy transfer) assay. Conditions: average IC50, enzyme assay; read-out: BACE 1 FRET assay. It is filed as biochemical. In short, it runs like this: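 Acetate buffer (0.05 M, pH 4.2), 10% DMSO final, 100 uM nonionic detergent genapol. Substrate addition (50 nM FRET peptide) initiates; one-hour incubation; Tris raises pH to neutrality before fluorescence measurement.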

In assay [2] the test system is Aβ40 in conditioned medium of cells stably expressing Amyloid Precursor Protein (APP). The assay is described as follows: In vitro BACE cell-based assay (Aβ40 in conditioned medium, sandwich ELISA). The settings on record: Homo sapiens, HEK293, average IC50; read-out: HEK cell assay. In short, it runs like this:
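Conditioned medium from stably APP-expressing cells treated with compound dose series is assayed for Aβ40 by sandwich ELISA with time-resolved fluorescence detection. IC50 is calculated from percent inhibition of Aβ40 against compound concentration.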
For orientation: An ELISA detects its analyte on a solid surface through an enzyme-linked reagent.

Where only a bound is given, the exact number is not on record here.

Chain of Beta Secretase enzyme (BACE) (P56817 46-501, species assumed): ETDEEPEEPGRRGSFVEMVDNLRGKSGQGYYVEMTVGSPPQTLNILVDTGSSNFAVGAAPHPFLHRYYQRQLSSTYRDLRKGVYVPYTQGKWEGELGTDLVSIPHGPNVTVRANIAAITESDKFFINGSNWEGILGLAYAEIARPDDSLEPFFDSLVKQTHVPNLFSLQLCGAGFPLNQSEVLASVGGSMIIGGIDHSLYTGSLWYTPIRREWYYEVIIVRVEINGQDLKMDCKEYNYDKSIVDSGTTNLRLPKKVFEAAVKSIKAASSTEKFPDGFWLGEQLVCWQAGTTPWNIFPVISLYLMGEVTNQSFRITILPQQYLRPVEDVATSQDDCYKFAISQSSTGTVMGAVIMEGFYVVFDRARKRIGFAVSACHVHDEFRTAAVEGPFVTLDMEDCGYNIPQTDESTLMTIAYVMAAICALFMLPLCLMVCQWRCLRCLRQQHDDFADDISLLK

Take `NC1=N[C@@]2(CO1)c1cc(-c3cccnc3F)ccc1Oc1cc(OC(F)(F)F)c(-c3ccnc(F)c3)cc12` [Example 991, (4S)-7′-(2-fluoro-3-pyridinyl)-2′-(2-fluoro-4-pyridinyl)-3′-(trifluoromethoxy)spiro[1,3-oxazole-4,9′-xanthen]-2-amine]: the IC50 amounted to 193 nM in assay [1] and 1090 nM in assay [2].

Turning to `NC1=N[C@]2(CS1)c1cc(-c3cccnc3F)ccc1Oc1cnc(-c3ccnc(F)c3)cc12` [Example 992, (5R)-7-(2-fluoro-3-pyridinyl)-3-(2-fluoro-4-pyridinyl)spiro[chromeno[2,3-c]pyridine-5,4′-[1,3]thiazol]-2′-amine], the IC50 is 42.5 nM in assay [1] and 1830 nM in assay [2].

`NC1=N[C@]2(CS1)c1cc(Br)ccc1Oc1cnc(Cl)cc12` [Example 993, (5R)-7-bromo-3-chlorospiro[chromeno[2,3-c]pyridine-5,4′-[1,3]thiazol]-2′-amine]: the IC50 is 11600 nM in assay [1] and at least 10000 nM in assay [2].

Turning to `CC1(C#Cc2cc3c(cn2)Oc2ccc(-c4cccnc4F)cc2[C@@]32CSC(N)=N2)COC1` [Example 995, (5S)-7-(2-fluoro-3-pyridinyl)-3-((3-methyl-3-oxetanyl)ethynyl)spiro[chromeno[2,3-c]pyridine-5,4′-[1,3]thiazol]-2′-amine], the IC50 stood at 0.8 nM in assay [1] and 15 nM in assay [2].

Regarding `NC1=N[C@]2(CS1)c1cc(-c3cccnc3F)ccc1Oc1c2cc(C2=CCOCC2)nc1F` [Example 998, (5R)-3-(3,6-dihydro-2H-pyran-4-yl)-1-fluoro-7-(2-fluoro-3-pyridinyl)spiro[chromeno[2,3-c]pyridine-5,4′-[1,3]thiazol]-2′-amine], the figures for the IC50 in assay [1] and in assay [2] were 13.5 nM and 218 nM, respectively.

For `COc1cc2c(c(F)c1F)Oc1ccc(Br)cc1[C@]21COC(N)=N1` [Example 1002, (4R)-7′-bromo-3′,4′-difluoro-2′-methoxyspiro[1,3-oxazole-4,9′-xanthen]-2-amine], the IC50 is 18100 nM in assay [1] and at least 10000 nM in assay [2].

Consider `COc1cc2c(c(F)c1F)Oc1ccc(Br)cc1[C@@]21COC(N)=N1` [Example 1003, (4S)-7′-bromo-3′,4′-difluoro-2′-methoxyspiro[1,3-oxazole-4,9′-xanthen]-2-amine], for which the IC50 is 1090 nM in assay [1] and at least 10000 nM in assay [2].

As for `COc1cc2c(c(F)c1F)Oc1ccc(-c3cccnc3F)cc1[C@]21COC(N)=N1` [Example 1004, (4R)-3′,4′-difluoro-7′-(2-fluoro-3-pyridinyl)-2′-methoxyspiro[1,3-oxazole-4,9′-xanthen]-2-amine], the IC50 is 5560 nM in assay [1] and at least 10000 nM in assay [2].

As to `COc1cc2c(c(F)c1F)Oc1ccc(-c3cccnc3F)cc1[C@@]21COC(N)=N1` [Example 1005, (4S)-3′,4′-difluoro-7′-(2-fluoro-3-pyridinyl)-2′-methoxyspiro[1,3-oxazole-4,9′-xanthen]-2-amine], the IC50 in assay [1] came to 5.8 nM; in assay [2] it was 1000 nM.

For the compound `NC1=N[C@@]2(CO1)c1cc(-c3cccnc3)ccc1Oc1c2cc(C2=CCOCC2)c(F)c1F` [Example 1007, (4S)-2′-(3,6-dihydro-2H-pyran-4-yl)-3′,4′-difluoro-7′-(3-pyridinyl)spiro[1,3-oxazole-4,9′-xanthen]-2-amine], the IC50 in assay [1] came to 1.9 nM; in assay [2], 24 nM.

As for `CC(C)(C#N)COc1cc2c(c(F)c1F)Oc1ccc(-c3cccnc3)cc1[C@]21COC(N)=N1` [Example 1008, 3-(((4R)-2-amino-3′,4′-difluoro-7′-(3-pyridinyl)spiro[1,3-oxazole-4,9′-xanthen]-2′-yl)oxy)-2,2-dimethylpropanenitrile], the IC50 was 17.9 nM in assay [1] and 775 nM in assay [2].

With `CC(C)(C#N)COc1cc2c(c(F)c1F)Oc1ccc(-c3cccnc3)cc1[C@@]21COC(N)=N1` [Example 1009, 3-(((4S)-2-amino-3′,4′-difluoro-7′-(3-pyridinyl)spiro[1,3-oxazole-4,9′-xanthen]-2′-yl)oxy)-2,2-dimethylpropanenitrile], the results for the IC50 in assay [1] and in assay [2] were 1.7 nM and 32 nM, respectively.

Regarding `NC1=N[C@]2(CO1)c1cc(-c3cccnc3F)ccc1Oc1c2cc(C2=CCOCC2)c(F)c1F` [Example 1010, (4R)-2′-(3,6-dihydro-2H-pyran-4-yl)-3′,4′-difluoro-7′-(2-fluoro-3-pyridinyl)spiro[1,3-oxazole-4,9′-xanthen]-2-amine], the IC50 in assay [1] stood at 9.4 nM; in assay [2] it was 647 nM.

Take `NC1=N[C@@]2(CO1)c1cc(-c3cccnc3F)ccc1Oc1c2cc(C2=CCOCC2)c(F)c1F` [Example 1011, (4S)-2′-(3,6-dihydro-2H-pyran-4-yl)-3′,4′-difluoro-7′-(2-fluoro-3-pyridinyl)spiro[1,3-oxazole-4,9′-xanthen]-2-amine]: the figures for the IC50 in assay [1] and in assay [2] were 0.5 nM and 17 nM, respectively.

For `NC1=N[C@]2(CO1)c1cc(-c3cccnc3)ccc1Oc1c2cc(-c2ccnc(F)c2)c(F)c1F` [Example 1012, (4R)-3′,4′-difluoro-2′-(2-fluoro-4-pyridinyl)-7′-(3-pyridinyl)spiro[1,3-oxazole-4,9′-xanthen]-2-amine], the IC50 in assay [1] was determined as 59.7 nM; in assay [2], 1850 nM.

For the compound `NC1=N[C@@]2(CO1)c1cc(-c3cccnc3)ccc1Oc1c2cc(-c2ccnc(F)c2)c(F)c1F` [Example 1013, (4S)-3′,4′-difluoro-2′-(2-fluoro-4-pyridinyl)-7′-(3-pyridinyl)spiro[1,3-oxazole-4,9′-xanthen]-2-amine], the IC50 amounted to 2.4 nM in assay [1] and 100 nM in assay [2].

As to `C[C@@](C#Cc1cnc2c(c1)[C@]1(COC(N)=N1)c1cc(-c3cccnc3F)ccc1O2)(CO)CCl` [Example 1015, (2R)-4-((5S)-2′-amino-7-(2-fluoro-3-pyridinyl)spiro[chromeno[2,3-b]pyridine-5,4′-[1,3]oxazol]-3-yl)-2-(chloromethyl)-2-methyl-3-butyn-1-ol], the IC50 stood at 1 nM in assay [1] and 9 nM in assay [2].

On to `NC1=N[C@@]2(CO1)c1cc(I)ccc1Oc1ncc(Br)cc12` [Example 1016, (5S)-3-bromo-7-iodospiro[chromeno[2,3-b]pyridine-5,4′-[1,3]oxazol]-2′-amine], for which the values for the IC50 in assay [1] and in assay [2] were 0.7 nM and 12 nM, respectively.

As to `NC1=N[C@]2(CO1)c1cc(I)ccc1Oc1ncc(Br)cc12` [Example 1017, (5R)-3-bromo-7-iodospiro[chromeno[2,3-b]pyridine-5,4′-[1,3]oxazol]-2′-amine], the IC50 stood at 27600 nM in assay [1] and 886 nM in assay [2].

Consider `NC1=N[C@@]2(CO1)c1cc(-c3cccnc3F)ccc1Oc1ncc(Br)cc12` [Example 1018, (5S)-3-bromo-7-(2-fluoro-3-pyridinyl)spiro[chromeno[2,3-b]pyridine-5,4′-[1,3]oxazol]-2′-amine], for which the IC50 was found to be 577 nM in assay [1] and 563 nM in assay [2].

On to `Cc1ccnn1-c1cnc2c(c1)[C@]1(COC(N)=N1)c1cc(-c3cccnc3F)ccc1O2` [Example 1020, (5S)-7-(2-fluoro-3-pyridinyl)-3-(5-methyl-1H-pyrazol-1-yl)spiro[chromeno[2,3-b]pyridine-5,4′-[1,3]oxazol]-2′-amine], for which the IC50 amounted to 16.5 nM in assay [1] and 851 nM in assay [2].

Regarding `Cc1ccn(-c2cnc3c(c2)[C@]2(COC(N)=N2)c2cc(-c4cccnc4F)ccc2O3)n1` [Example 1021, (5S)-7-(2-fluoro-3-pyridinyl)-3-(3-methyl-1H-pyrazol-1-yl)spiro[chromeno[2,3-b]pyridine-5,4′-[1,3]oxazol]-2′-amine], the figures for the IC50 in assay [1] and in assay [2] were 3.5 nM and 119 nM, respectively.

Regarding `Cc1ccn(-c2cnc3c(c2)[C@]2(COC(N)=N2)c2cc(-c4cccnc4)ccc2O3)n1` [Example 1022, (5S)-3-(3-methyl-1H-pyrazol-1-yl)-7-(3-pyridinyl)spiro[chromeno[2,3-b]pyridine-5,4′-[1,3]oxazol]-2′-amine], the figures for the IC50 in assay [1] and in assay [2] were 7.2 nM and 106 nM, respectively.

For the compound `NC1=N[C@@]2(CS1)c1cc(-c3c(F)ccnc3F)ccc1Oc1cnc(-c3ccnc(F)c3)cc12` [Example 1023, (5S)-7-(2,4-difluoro-3-pyridinyl)-3-(2-fluoro-4-pyridinyl)spiro[chromeno[2,3-c]pyridine-5,4′-[1,3]thiazol]-2′-amine], the IC50 in assay [1] was found to be 0.4 nM; in assay [2], 18 nM.

As to `NC1=N[C@@]2(CS1)c1cc(-c3cccnc3F)ccc1Oc1c2cc(Cl)nc1F` [Example 1024, (5S)-3-chloro-1-fluoro-7-(2-fluoro-3-pyridinyl)spiro[chromeno[2,3-c]pyridine-5,4′-[1,3]thiazol]-2′-amine], the IC50 worked out at 6.6 nM in assay [1] and 1440 nM in assay [2].

Regarding `NC1=N[C@@]2(CS1)c1cc(-c3cccnc3F)ccc1Oc1c2cc(-c2cccnc2F)nc1F` [Example 1025, (5S)-1-fluoro-3,7-bis(2-fluoro-3-pyridinyl)spiro[chromeno[2,3-c]pyridine-5,4′-[1,3]thiazol]-2′-amine], the IC50 in assay [1] came to 1 nM; in assay [2] it was 141 nM.

Regarding `NC1=N[C@@]2(CS1)c1cc(-c3cccnc3F)ccc1Oc1c2cc(C2=CCCCO2)nc1F` [Example 1026, (5S)-3-(3,4-dihydro-2H-pyran-6-yl)-1-fluoro-7-(2-fluoro-3-pyridinyl)spiro[chromeno[2,3-c]pyridine-5,4′-[1,3]thiazol]-2′-amine], the IC50 came to 0.2 nM in assay [1] and 11 nM in assay [2].

As to `NC1=N[C@@]2(CS1)c1cc(-c3cccnc3F)ccc1Oc1c2cc(-c2ccncc2)nc1F` [Example 1027, (5S)-1-fluoro-7-(2-fluoro-3-pyridinyl)-3-(4-pyridinyl)spiro[chromeno[2,3-c]pyridine-5,4′-[1,3]thiazol]-2′-amine], the IC50 in assay [1] turned out to be 0.4 nM; in assay [2] it was 14 nM.
